# From US12540131B2 (Merck Sharp & Dohme LLC, priority 2019, dated 2026)
# Target: GST tagged truncated human mutant G2019S LRRK2 (Homo sapiens (Human), UniProt Q5S007, G2019S)
# Test: LRRK2 Km ATP LanthaScreen Assay
# Type: biochemical
# Details: G2019S LRRK2, 134 μM ATP (Km ATP), mean values
# How it was run: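 Enzyme (GST-tagged, truncated) was preincubated with compound for 15 min at RT in 50 mM Tris pH 8.5, 10 mM MgCl2, 0.01% Brij-35, 1 mM EGTA, 2 mM DTT and 0.05 mM orthovanadate. Fluorescein-LRRKtide and 134 μM ATP (Km) were then added for 90 min. EDTA and Tb-anti-pERM antibody stopped the reaction; the TR-FRET 520/495 ratio gave 4-parameter IC50s, reported as mean pIC50.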
# Sequence of GST tagged truncated human mutant G2019S LRRK2 (Q5S007 970-2527 G2019S): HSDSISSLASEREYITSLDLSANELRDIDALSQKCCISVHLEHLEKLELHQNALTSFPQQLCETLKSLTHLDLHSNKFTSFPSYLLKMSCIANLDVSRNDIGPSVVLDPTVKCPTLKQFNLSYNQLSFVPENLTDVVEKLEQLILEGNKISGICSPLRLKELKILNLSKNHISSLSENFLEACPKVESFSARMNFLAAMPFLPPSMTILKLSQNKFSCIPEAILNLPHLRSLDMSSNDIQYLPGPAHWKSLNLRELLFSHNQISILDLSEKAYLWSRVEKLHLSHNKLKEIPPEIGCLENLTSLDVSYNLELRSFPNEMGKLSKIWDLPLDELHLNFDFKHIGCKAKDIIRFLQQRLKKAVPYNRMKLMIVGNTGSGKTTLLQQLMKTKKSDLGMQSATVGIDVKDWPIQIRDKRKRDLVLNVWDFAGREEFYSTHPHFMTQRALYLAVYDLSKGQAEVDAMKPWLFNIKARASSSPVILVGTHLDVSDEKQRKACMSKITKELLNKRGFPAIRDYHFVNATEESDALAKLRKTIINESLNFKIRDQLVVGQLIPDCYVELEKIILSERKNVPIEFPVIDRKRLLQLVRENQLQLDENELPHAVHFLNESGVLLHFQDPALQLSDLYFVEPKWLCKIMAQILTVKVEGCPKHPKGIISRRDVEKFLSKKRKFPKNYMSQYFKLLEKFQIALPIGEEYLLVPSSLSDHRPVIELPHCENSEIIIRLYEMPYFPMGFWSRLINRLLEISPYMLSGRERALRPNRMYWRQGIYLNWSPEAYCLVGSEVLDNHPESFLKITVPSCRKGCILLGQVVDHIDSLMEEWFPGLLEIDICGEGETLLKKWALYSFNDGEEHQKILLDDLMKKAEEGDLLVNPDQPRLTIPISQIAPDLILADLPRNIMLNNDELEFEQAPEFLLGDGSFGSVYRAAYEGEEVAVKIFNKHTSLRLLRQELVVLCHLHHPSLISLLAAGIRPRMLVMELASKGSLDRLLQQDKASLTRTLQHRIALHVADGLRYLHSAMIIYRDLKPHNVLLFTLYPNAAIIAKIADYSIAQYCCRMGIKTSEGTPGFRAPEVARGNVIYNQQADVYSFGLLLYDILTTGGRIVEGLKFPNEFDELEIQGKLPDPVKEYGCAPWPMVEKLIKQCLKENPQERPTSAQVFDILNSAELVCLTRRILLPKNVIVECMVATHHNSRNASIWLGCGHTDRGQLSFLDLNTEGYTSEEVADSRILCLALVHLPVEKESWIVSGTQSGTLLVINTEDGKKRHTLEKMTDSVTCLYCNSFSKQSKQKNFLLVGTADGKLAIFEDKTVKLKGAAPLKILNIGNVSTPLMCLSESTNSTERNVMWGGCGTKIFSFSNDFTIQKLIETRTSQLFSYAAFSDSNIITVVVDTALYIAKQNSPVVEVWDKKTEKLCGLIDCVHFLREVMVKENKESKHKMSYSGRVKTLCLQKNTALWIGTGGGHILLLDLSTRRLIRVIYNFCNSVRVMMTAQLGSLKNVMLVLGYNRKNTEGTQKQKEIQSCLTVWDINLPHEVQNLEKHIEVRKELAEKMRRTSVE
row,Structure (SMILES),LRRK2 pIC50
1,"N#CC1COCC1N1CCC(c2cc3nc(Nc4cnn(C5CC5)c4Cl)ncc3cc2Cl)CC1 (single isomer, unassigned) [Ex-4.103, (3S,4S) or (3R,4R) or (3S,4R) or (3R,4S) 4-(4-(6-chloro-2-((5-chloro-1-cyclopropyl-1H-pyrazol-4-yl)amino)quinazolin-7-yl)piperidin-1-yl)tetrahydrofuran-3-carbonitrile]",8.49
2,"CN1CC[C@@H](c2cc3nc(Nc4cnn(C5(C)CC5)c4Cl)ncc3cc2Cl)[C@H](O)C1 (single isomer, unassigned) [Ex-4.29, (3S,4S) or (3R,4R) 4-(6-chloro-2-{[5-chloro-1-(1-methylcyclopropyl)-1H-pyrazol-4-yl]amino}quinazolin-7-yl)-1-methylpiperidin-3-ol]",8.07
3,"Cc1cc2cnc(Nc3cnn(C4CC4(F)F)c3Cl)nc2cc1[C@@H]1CCN([C@@]2(C)COC[C@H]2O)C[C@H]1F (single isomer, unassigned) [Ex-4.147, (R)(3S,4S)(3S,4S) or (R)(3S,4S)(3R,4R) or (R)(3R,4R)(3S,4S) or (R)(3R,4R)(3R,4R) or (S)(3S,4S)(3S,4S) or (S)(3S,4S)(3R,4R) or (S)(3R,4R)(3S,4S) or (S)(3R,4R)(3R,4R) 4-[4-(2-{[5-chloro-1-(2,2-difluorocyclopropyl)-1H-pyrazol-4-yl]amino}-6-methylquinazolin-7-yl)-3-fluoropiperidin-1-yl]-4-methyloxolan-3-ol]",>9.20
4,"F[C@@H]1CN(C2COC2)CC[C@H]1c1cc2nc(Nc3cnn(C4CC4)c3Cl)ncc2cc1Cl (single isomer, unassigned) [Ex-4.34, (3S,4S) or (3R,4R) 6-chloro-N-(5-chloro-1-cyclopropyl-1H-pyrazol-4-yl)-7-[3-fluoro-1-(oxetan-3-yl)piperidin-4-yl]quinazolin-2-amine]",9.12
5,"O[C@H]1COC[C@H]1N1CC[C@H](c2cc3nc(Nc4cnn(C56CC(C5)C6)c4Cl)ncc3cc2Cl)[C@@H](F)C1 (single isomer, unassigned) [Ex-8.37, (3S,4S)(3S,4S) or (3S,4S)(3R,4R) or (3R,4R)(3S,4S) or (3R,4R)(3R,4R) 4-[4-(2-{[1-(bicyclo[1.1.1]pentan-1-yl)-5-chloro-1H-pyrazol-4-yl]amino}-6-chloroquinazolin-7-yl)-3-fluoropiperidin-1-yl]oxolan-3-ol]",>9.20
6,"Cn1ncc(Nc2ncc3cc(Cl)c(C4CCN([C@]5(C)COC[C@@H]5O)CC4)cc3n2)c1Cl (single isomer, unassigned) [Ex-2.76, (3S,4S) or (3R,4R) 4-(4-(6-chloro-2-((5-chloro-1-methyl-1H-pyrazol-4-yl)amino)quinazolin-7-yl)piperidin-1-yl)-4-methyltetrahydrofuran-3-ol]",7.76
7,"Cc1c(Nc2ncc3cc(Cl)c(C4CCN(CC(C)(C)O)CC4)cc3n2)cnn1C1CC1 [Ex-4.217, 1-(4-{6-chloro-2-[(1-cyclopropyl-5-methyl-1H-pyrazol-4-yl)amino]quinazolin-7-yl}piperidin-1-yl)-2-methylpropan-2-ol]",8.57
8,"CC(C)(O)Cn1ncc(Nc2ncc3cc(Cl)c([C@H]4CCN(C5COC5)C[C@@H]4F)cc3n2)c1Cl (single isomer, unassigned) [Ex-4.44, (3S,4S) or (3R,4R) 1-[5-chloro-4-({6-chloro-7-[3-fluoro-1-(oxetan-3-yl)piperidin-4-yl]quinazolin-2-yl}amino)-1H-pyrazol-1-yl]-2-methylpropan-2-ol]",>9.20

# Same assay, conditions: G2019S LRRK2, 134 μM ATP (Km ATP), mean values; read-out: LRRK2 pIC50 (converted)
row,Structure (SMILES),IC50
1,"CC1(N2CC3(CC(n4cc(Nc5ncc6cc(Cl)c(C7CC78CC8)cc6n5)cn4)C3)C2)COC1 (single isomer, unassigned) [Ex-2.8, (S) or (R) 6-chloro-N-{1-[2-(3-methyloxetan-3-yl)-2-azaspiro[3.3]heptan-6-yl]-1H-pyrazol-4-yl}-7-(spiro[2.2]pentan-1-yl)quinazolin-2-amine]",1.26 nM
